Results taken from patent US20100137344A1, “INDUCTION OF ANALGESIA IN NEUROPATHIC PAIN” (University Court of the University of Edinburgh, priority 2006, published 2010).
Where two headings read alike, the source gives them in different places.

Legend:
[1] = test system: rats with chronic constriction injury (CCI) to sciatic nerve; test: Intrathecal application in CCI rats, behavioural reflex testing (PWL, PWT); type: in vivo, rat; conditions: for duration of significant reversal of sensitised responses: (−)-menthol 200 nmol; for EC50: Rattus norvegicus, central
Protocol: Pain models were generated under halothane anaesthesia (Zeneca, Cheshire, UK). For the chronic constriction injury (CCI) model of neuropathic pain, four ligatures were tied loosely to constrict the sciatic nerve at mid-thigh level (as described previously^[39]). An inflammatory pain model was generated by injecting 100 μl of Complete Freund's Adjuvant (CFA, Sigma-Aldrich Ltd) into the ventral surface of the right hindpaw^[39]. A model of peripheral demyelination-induced pain was produced by focal application of lysolecithin to the sciatic nerve^[40]. Peak behavioural sensitisation was observed post-surgically between days 10-16 for CCI, 1-3 for CFA, and 7-14 for lysolecithin, when pharmacological and electrophysiological experiments and tissue removal were conducted.
(§1) Thermal sensitivity was assessed by measuring paw withdrawal latency (PWL, s) in response to a noxious thermal stimulus (Hargreaves' thermal stimulator, Linton Instrumentation, Diss, UK) directed to the hindpaw mid-plantar glabrous surface. Mechanical sensitivity was recorded as the paw withdrawal threshold (PWT, mN/mm^2) to calibrated von Frey filaments (Stoelting, Ill., US), as previously described^[39]. Sensitivity to noxious cold was assessed by placing animals in a waterbath with an aluminium floor containing 1 cm deep 4° C. water and counting the time the paw was held suspended over a 20 s period.
(§2) The following drugs were applied intrathecally in a 50 μl volume of saline-based vehicle at 37° C.: icilin (2.5-200 μM in saline with 0.2% dimethylformamide, DMF), LY 341495 (100 μM in saline), UBP 1112 (200 μM in saline), 2R,4R-APDC ((2R, 4R)-4-aminopyrrolidine-2,4-dicarboxylate), 300 μM in saline), ACPT-III ((1R,3R,4S)-1-aminocyclopentane-1,3,4-tricarboxylic acid), 3 mM in saline), AP-4, ((L-(1)-2-amino-4-phosphonobutyric acid), 3 mM in saline), naloxone (0.5 mM in saline), NMDA (75 μM in saline) and ACPC (1-aminocyclopropanecarboxylic acid, 15 μM in saline) (Tocris Cookson, Bristol, UK), (−)-menthol (1R,2S,5R-(−)-menthol, 4 mM in saline), cinnamaldehyde (1.5 mM in saline) and Ruthenium Red (5 μM in saline) (Sigma-Aldrich Co. Ltd, UK) and allicin (0.5 mM in saline with 0.5% DMF) and diallyl disulphide (DADS, 1 mM in saline with 0.5% DMF) (LKT Laboratories Inc., St Paul, Minn., USA). Drugs were injected into the L5/6 intrathecal space under brief halothane anaesthesia, using a 25-gauge needle microsyringe (BD Biosciences, Oxford, UK), as described previously^[39] in animals that were at peak levels of behavioural sensitisation. Behavioural reflex testing commenced 15 min following injection to allow recovery from anaesthesia^[40,41,42] and continued every 5 min thereafter until readings returned to baseline levels (n=6 in each case). We, and others^[40,41,42] find complete recovery from anaesthetic by 15 minutes. All appropriate controls were carried out to eliminate the possibility of effects due to vehicle or to injection procedure.
(§3) The TRPM8 channel activators, icilin and (−)-menthol were tested in CCI and naïve animals. The effects of icilin were additionally assessed in animals with CFA-induced inflammation or with lysolecithin-induced demyelination. Icilin was also co-administered with the μ-opioid receptor antagonist naloxone, the Group II metabotropic glutamate receptor (mGluR) antagonist, LY 341495, or the Group III mGluR antagonist, UBP 1112. The effects of these antagonists alone as well as effects of the Group II mGluR agonist, 2R,4R-APDC and the Group III mGluR agonists, ACPT-III and AP-4, were assessed in CCI animals. The TRPA1 channel activator, cinnamaldehyde, alone and with icilin, was tested in CCI animals and in naïve animals. Further TRPA1 channel activators, allicin and diallyl disulphide were assessed in naïve animals. Both icilin and cinnamaldehyde effects in CCI animals were also investigated in the additional presence of Ruthenium Red.

[2] = test system: naïve rats; test: Intrathecal application in naïve rats, behavioural reflex testing (PWL, PWT); type: in vivo, rat; conditions: icilin 10 nmol, (−)-menthol 200 nmol, data not shown
Protocol: as §1, §2, §3

[3] = (−)-menthol 200 nmol intrathecal alone, 20-30 minutes post-injection
[4] = intrathecal, non-linear curve-fitting

SMILES | mean percentage reversal of sensitisation, PWL [1, 3] [%] | mean percentage reversal of sensitisation, PWT [1, 3] [%] | duration of significant reversal of sensitised responses ([1]; intrathecal, icilin 10 nmol) | effect on reflex responses in naïve animals [2] | Ipsilateral PWL ([1]; CCI, NMDA/ACPC in the additional presence of icilin 10 nmol) [s] | Ipsilateral PWT ([1]; CCI, NMDA/ACPC with co-injection of icilin 10 nmol) [mN/mm^2] | Mean % reversal of mechanical sensitisation (after 15-30 mins) ([1]; CCI, icilin 10 nmol, i.t.) [%] | Mean % reversal of thermal sensitisation (after 15-30 mins) ([1]; CCI, icilin 10 nmol, i.t.) [%] | PWL (s) difference from control (+ icilin) ([1]; CCI, icilin 10 nmol, i.t.) [s] | PWT (mN/mm^2) difference from control (+ icilin) ([1]; CCI, icilin 10 nmol, i.t.) [mN/mm^2] | EC50 ([1]; intrathecal, non-linear curve-fitting, read-out: EC50 (dose for 50% of maximal effect), PWL) [nM] | EC50 ([1]; intrathecal, non-linear curve-fitting, read-out: EC50 (dose for 50% of maximal effect), PWT) [nM] | maximal effect, reversal of sensitisation, PWL [1, 4] [%] | maximal effect, reversal of sensitisation, PWT [1, 4] [%] | dose by which analgesic effects were statistically significant ([1]; intrathecal, thermal and mechanical tests, nerve injury side) [nmol]
CC(C)[C@@H]1CC[C@@H](C)C[C@H]1O [(−)-menthol, 1R,2S,5R-(−)-menthol] | 86.1±8.1 | 80.6±4.2 | 35 to 40 min | without effect |  |  |  |  |  |  |  |  |  |  | 
O=C1NC(c2cccc([N+](=O)[O-])c2)=CCN1c1ccccc1O [icilin, 1-(2′-hydroxyphenyl)-4-(3″-nitrophenyl)-1,2,3,6-tetrahydropyrimidin-2-one] |  |  | up to 55 min | without effect | 14.9 ± 0.6 | 3482.7±174.3 | 76.8 ± 5.3 | 84.7 ± 6.0 | 0.9 ± 1.2 | 775.4 ± 467.7 | 0.17 ± 0.02 | 0.31 ± 0.02 | 91.6±9.9 | 82.6±6.8 | 0.125
